Results on four compounds are retold here after publication PMC3128934, “Substrate Pathways and Mechanisms of Inhibition in the Sulfur Oxygenase Reductase of Acidianus Ambivalens” (Frontiers in Microbiology, 2011).

Test [1] concerns sulfur oxygenase reductase (SOR). Details: method as in Kletzin, [1989]. The settings on record: ref Kletzin, [1989], cited from earlier work; for residual activity for the oxidized reaction products: 0.1 mM inhibitor; for oxygenase activity remaining: 1 mM inhibitor.
The target in test [2] is sulfur oxygenase reductase (SOR) H166A mutant (Acidianus ambivalens, UniProt P29082, H166A). As to the kind of experiment: biochemical. The settings on record: for Ki: Ki-value (half-maximal inhibitory concentration), H166A mutant. The protocol:
(§1) Specific activities of the wild type and mutant proteins were determined by incubation of 2–5 μg of purified enzyme/ml of Tris–HCl buffer pH 7.2 containing 2% sulfur and 0.1% of Tween 20 as described previously (Kletzin, [1989]; Urich et al., [2004], [2005b]). Samples were taken at appropriate time points (usually after 0, 2, 4, 6, 8, and 10 min) and the concentration of the products was determined colorimetrically. Specific activities were calculated from the linear increase of product concentrations (Kletzin, [1989]). At least two activity measurements were performed for each mutant using independently purified protein preparations (see below, Table 2). Iron quantification was performed with pure protein preparations using the 2,4,6-tripyridyl-1,3,5-triazine method (TPTZ; Fischer and Price, [1964]). Protein concentrations were determined by the Coomassie Blue method (Bradford, [1976]) or using the BCA Protein Assay Kit (Novagen/Merck, Darmstadt, Germany) according to the manufacturer's instructions. Samples of purified proteins were separated by SDS-PAGE (Schägger and von Jagow, [1987]) and visualized with colloidal Coomassie Blue staining (Roti-Blue; Roth, Karlsruhe, Germany).
(§2) Zinc inhibition assays of the wild type and mutant proteins were performed by addition of a freshly prepared zinc chloride solution to the reaction buffer in concentrations ranging from 0.01 to 1 mM (Kletzin, [1989]). After addition of the enzyme, the mixture was incubated for 30 min at room temperature before starting the reaction by heating to 85°C and measurement of the specific activities. A zinc/buffer mixture without protein was used as a negative control.

Test [3] concerns the target sulfur oxygenase reductase (SOR) H277A mutant (Acidianus ambivalens, UniProt P29082, H277A). Kind of test: biochemical. The settings on record: for Ki: Ki-value (half-maximal inhibitory concentration), H277A mutant. The protocol:
as §1, §2

For test [4], the target named is sulfur oxygenase reductase (SOR) wild type (Acidianus ambivalens, UniProt P29082). As to the kind of experiment: biochemical. Conditions: Ki-value (half-maximal inhibitory concentration), wild type enzyme, 30 min preincubation at room temperature, reaction at 85°C. The protocol:
as §1, §2

Chain of sulfur oxygenase reductase (SOR) H277A mutant (P29082 whole entry H277A): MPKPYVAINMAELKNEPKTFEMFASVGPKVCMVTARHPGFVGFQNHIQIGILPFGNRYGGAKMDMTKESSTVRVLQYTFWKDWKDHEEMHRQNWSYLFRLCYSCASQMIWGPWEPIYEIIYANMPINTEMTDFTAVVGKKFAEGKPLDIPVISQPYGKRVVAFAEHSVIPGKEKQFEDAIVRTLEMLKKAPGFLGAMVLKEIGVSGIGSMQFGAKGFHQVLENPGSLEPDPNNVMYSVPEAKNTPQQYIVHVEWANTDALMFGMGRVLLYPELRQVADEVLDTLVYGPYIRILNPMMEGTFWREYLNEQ
Chain of sulfur oxygenase reductase (SOR) H166A mutant (P29082 whole entry H166A): as the sequence (P29082 whole entry H277A) above, with H166A, A277H counted along it
Chain of sulfur oxygenase reductase (SOR) wild type (P29082 whole entry): as the sequence (P29082 whole entry H277A) above, with A277H counted along it

For the compound `[Hg+2]` [Hg^2+], in test [1], the “residual activity for the oxidized reaction products” value is reported as 37%.

In the case of `NC(=O)CI` [IAA, iodoacetamide], in test [1], the oxygenase activity remaining was 27%.

Regarding `CCN1C(=O)C=CC1=O` [NEM, N-ethylmaleimide], the oxygenase activity remaining in test [1] is 47%.

On to `[Zn+2]` [zinc chloride], for which the “Increase of Ki-value compared to the wild type” value in test [2] (H166A mutant vs wild type) and in test [3] (H277A mutant vs wild type) was “two- to threefold” in each case. Also, the Ki (usually a measure of affinity in units of concentration, obtained from inhibition or displacement) in test [2] (oxygenase activity) was determined as 121 µM; in test [2] (reductase activity), 150 µM; in test [3] (oxygenase activity), 157 µM; in test [3] (reductase activity), 144 µM; in test [4] (oxygenase activity), 45 µM; in test [4] (reductase activity), 39 µM. Also, the “residual activity for the oxidized reaction products” value in test [1] is recorded as 74%.
